Experimental data taken from paper PMC6749325, “Hybrids of Cinchona Alkaloids and Bile Acids as Antiparasitic Agents Against Trypanosoma cruzi” (Molecules, 2019).
In brackets after ≈: the same amount, converted by molar mass.

Columns and labels:
[1] = tested on: T. cruzi CL Brener trypomastigotes; assay: Trypomastigote IC50 estimation, CL Brener strain; format: cell-based, Trypanosoma cruzi; details: for IC50: Trypanosoma cruzi, 24 h; for IC50 / T. cruzi CL Brener IC50: trypomastigotes, 24 h incubation, IC50 ± SD (n = 3); for Selectivity NRK/T. cruzi (SI): IC50NRK/IC50 parasite, CL Brener trypomastigotes
Experimental: (§1) The NRK and Vero cell lines were routinely maintained in DMEM (Gibco) supplemented with 10% SFB (Natocor) and Penicillin/Streptomicin (100 Units/0.1mg/mL, Sigma) at 37 °C and 5% CO2 atmosphere. The trypomatigotes of T. cruzi strains CL Brener, Y, and RA were routinely maintained in Vero cells cultured in DMEM supplemented with 4% SFB and Penicillin/Streptomicin. The trypomastigotes of each strain were purified from infected Vero cells supernatants and used in the different assays.
(§2) 2 × 10^6/mL trypomastigotes were incubated with different concentrations of the hybrids, control drug or vehicle, by triplicate at 37 °C and 5% CO2 for 24 h. Next, trypomastigotes were counted in a Neubauer chamber. The IC50 ± SD (n = 3) were estimated using the “Dose–Response” module in Graphpad Prism.

[2] = tested on: T. cruzi Y (DTU II) trypomastigotes; assay: Trypomastigote IC50 estimation, Y strain; format: cell-based, Trypanosoma cruzi; details: 24 h incubation; for IC50: Trypanosoma cruzi, 24 h
Experimental: as §1, §2

[3] = tested on: T. cruzi RA (DTU VI) trypomastigotes; assay: Trypomastigote IC50 estimation, RA strain; format: cell-based, Trypanosoma cruzi; details: 24 h incubation; for IC50: Trypanosoma cruzi, 24 h
Experimental: as §1, §2

[4] = tested on: NRK cells; assay: NRK cell IC50 estimation (cytotoxicity, crystal violet); format: cell-based; details: 48 h incubation; for IC50: Rattus norvegicus, NRK, 48 h
Experimental: as §1
1 × 10^5/mL NRK cells were grown overnight in a 96 multi-well plate. The culture medium was replaced by a culture medium containing increasing concentrations of hybrids, control drugs or vehicles, and cells incubated at 37 °C and 5% CO2 for 48 h. Next, cells were washed, fixed for 10 min with cold methanol (Sintorgan), and stained with violet crystal (Sigma 0.5% in methanol). After an exhaustive wash, cells were dried overnight. 10% acetic acid (Biopack) was added to each well, and the absorbance measured at 600 nm. Similarly, a standard curve was prepared (absorbance vs. increasing concentrations of NRK cells) to estimate the NRK IC50 using Graphpad Prism.

[5] = tested on: T. brucei; design: method as in PMID 23816880; details: compared with the commercial drug suramin; cited from earlier work
[6] = tested on: trypomastigotes of the Y strain released from infected NRK cells; assay: Trypomastigote release assay; format: cell-based, Trypanosoma cruzi; details: 72 hours of treatment then drug-free medium, vs non-treated control
From the text: To fully eliminate the intracellular parasite, a trypanocidal drug action is ideally desired. For trypanostatic drugs, a longer chemotherapy is required to allow the elimination of the intracellular parasite, since the anti-parasitic effect could be reversed upon removal of the drug. In order to characterize the antiparasitic features of the hybrids, our strategy was to remove the hybrids from the medium of infected NRK cells and let the infection develop. In this approach, after the two hour infection of NRK cells with trypomastigotes of the Y strain, compounds were added and left for 72 hours before being replaced with fresh medium without drugs. Six days post infection, the trypomastigotes released to the supernatant were quantified. […]
NRK cells were cultured and treated as described in Section 4.1. […] At day 6 pi, the released trypomastigotes in the supernatant of infected were counted using a Neubauer chamber.
In all cases, 3 independent experiments were done by triplicate. […] The mean ± SD of amastigotes/100 cells or trypomastigote released were calculated and analyzed with one-way ANOVA with Dunnett posttest performed with Graphpad Prism software.

[7] = tested on: intracellular amastigotes of the Y strain; assay: Amastigote count in infected NRK cells; format: cell-based, Trypanosoma cruzi; details: hybrid at trypomastigote IC50 for the Y strain, 48 h, compared to untreated infected cells
From the text: Not only the genetic diversity among strains should be taken into account while searching for new drugs. Differential susceptibility of the different life cycle stages of the parasite within the same strain [18] should be also considered. In this regard, Bz and Nf effectiveness against axenic epimastigotes and the intracellular stages of T. cruzi have been already reported. […] More importantly, given that in the chronic phase of Chagas disease, current chemotherapy is not efficient and that parasitemia is usually low, performing new drug screenings on the intracellular replicative stage of the parasite appears to be the better approach. To confirm their anti-parasitic activity, nine of the hybrids were evaluated against intracellular amastigotes of the Y strain at the IC50 found for trypomastigotes of the same strain. Briefly, trypomastigotes were incubated with NRK cells and left to infect for two hours. […] Forty-eight hours post infection, cells were fixed and stained, and amastigotes/100 cells were calculated.
Infections were performed as previously described. […] After 48 h of incubation, cells were fixed with 4% formalin, stained with DAPI and photographed in a fluorescence microscope (Olympus). The amastigotes/100 cells were determined counting 1000 cells from each well (3000 cells/compound) using the ImageJ cell counter plugin. […]

Row | Compound | IC50 [1] [µg/mL] | IC50 [2] [µg/mL] | IC50 [3] [µg/mL] | Selectivity NRK/T. cruzi (SI) [1] | T. cruzi CL Brener IC50 [1] [µg/mL] | NRK Cells IC50 [4] [µg/mL] | IC50 [4] [µg/mL] | trypanocidal activity against T. brucei, IC50 [5] | Trypomastigote count in the supernatant of infected cells at day six post infection [6] | T. cruzi Y (DTU II) IC50 [2] [µg/mL] | T. cruzi RA (DTU VI) IC50 [3] [µg/mL] | Effect on intracellular amastigotes (amastigotes/100 cells) [7]
1 | O=C(Cn1ccnc1[N+](=O)[O-])NCc1ccccc1 [Bz, benznidazole, reference compound] | 2.5 ± 0.01 (≈ 9.61 µM) | ≥ 15 | 2.5 ± 0.32 (≈ 9.61 µM) | – | – | – | – | – | – | – | – | –
2 | C=CC1CN2CCC1CC2C(O)c1cc(CCC(C)C2CCC3C4CCC5CC(OC(C)=O)CCC5(C)C4CCC23C)nc2ccc(OC)cc12 (stereo not drawn) [Hybrid 4a] | – | – | – | 2.20 | 0.64 ± 0.15 | 1.41 ± 0.13 | – | – | – | – | – | –
3 | C=CC1CN2CCC1CC2C(O)c1cc(CCC(C)C2CCC3C4C(OC(C)=O)CC5CC(OC(C)=O)CCC5(C)C4CCC23C)nc2ccc(OC)cc12 (stereo not drawn) [Hybrid 4b] | 0.8 ± 0.13 (≈ 1.06 µM) | – | – | 4.89 | – | – | 3.91 ± 0.29 (≈ 5.18 µM) | – | – | – | – | –
4 | C=CC1CN2CCC1CC2C(O)c1cc(CCC(C)C2CCC3C4CCC5CC(OC(C)=O)CCC5(C)C4CCC23C)nc2ccc(OC)cc12 (stereo not drawn) [Hybrid 4c] | 1.08 ± 0.23 (≈ 1.55 µM) | ≥ 1 | – | 15.30 | – | 16.53 ± 0.18 | – | – | – | – | – | –
5 | C=CC1CN2CCC1CC2C(O)c1cc(CCC(C)C2CCC3C4C(OC(C)=O)CC5CC(OC(C)=O)CCC5(C)C4CCC23C)nc2ccc(OC)cc12 (stereo not drawn) [Hybrid 4d] | – | – | – | 4.58 | 0.72 ± 0.07 | 3.30 ± 0.08 | – | in the same range as the commercial drug suramin | – | – | – | –
6 | C=CC1CN2CCC1CC2C(O)c1cc(CCC(C)C2CCC3C4CCC5CC(OC(C)=O)CCC5(C)C4CCC23C)nc2ccccc12 (stereo not drawn) [Hybrid 4e] | 1.16 ± 0.15 (≈ 1.74 µM) | – | – | 6.46 | – | – | 7.5 ± 0.29 (≈ 11.2 µM) | – | – | – | – | –
7 | C=CC1CN2CCC1CC2C(O)c1cc(CCC(C)C2CCC3C4C(OC(C)=O)CC5CC(OC(C)=O)CCC5(C)C4CCC23C)nc2ccccc12 (stereo not drawn) [Hybrid 4f] | 0.51 ± 0.06 (≈ 0.703 µM) | – | – | 13.04 | – | – | 6.69 ± 1.51 (≈ 9.23 µM) | in the same range as the commercial drug suramin | significantly lower than non-treated control | 0.50 ± 0.03 | 0.25 ± 0.10 | significant reduction in intracellular amastigotes
8 | C=CC1CN2CCC1CC2C(O)c1cc(CCC(C)C2CCC3C4CCC5CC(OC(C)=O)CCC5(C)C4CCC23C)nc2ccccc12 (stereo not drawn) [Hybrid 4g] | – | 3.05 ± 0.71 (≈ 4.57 µM) | 1.1 ± 0.21 (≈ 1.65 µM) | 9.46 | 1.30 ± 0.01 | 12.30 ± 0.81 | – | – | – | – | – | –
9 | C=CC1CN2CCC1CC2C(O)c1cc(CCC(C)C2CCC3C4C(OC(C)=O)CC5CC(OC(C)=O)CCC5(C)C4CCC23C)nc2ccccc12 (stereo not drawn) [Hybrid 4h] | – | – | – | 9.28 | 0.70 ± 0.18 | 6.50 ± 0.28 | – | in the same range as the commercial drug suramin | – | ≥2.00 | 1.50 ± 0.50 | –
10 | C=CC1CN2CCC1CC2C(O)c1cc(CCC(C)C2CCC3C4CCC5CC(O)CCC5(C)C4CCC23C)nc2ccc(OC)cc12 (stereo not drawn) [Hybrid 5a] | – | – | – | 4.12 | 3.71 ± 0.13 | 15.30 ± 4.04 | – | – | – | – | – | –
11 | C=CC1CN2CCC1CC2C(O)c1cc(CCC(C)C2CCC3C4C(O)CC5CC(O)CCC5(C)C4CCC23C)nc2ccc(OC)cc12 (stereo not drawn) [Hybrid 5b] | – | – | – | 5.67 | 0.90 ± 0.10 | 5.10 ± 0.76 | – | in the same range as the commercial drug suramin | – | – | – | –
12 | C=CC1CN2CCC1CC2C(O)c1cc(CCC(C)C2CCC3C4CCC5CC(O)CCC5(C)C4CCC23C)nc2ccc(OC)cc12 (stereo not drawn) [Hybrid 5c] | – | ≥ 2 | 0.79 ± 0.19 (≈ 1.21 µM) | – | 0.78 ± 0.11 | – | > 11 | – | – | – | – | –
13 | C=CC1CN2CCC1CC2C(O)c1cc(CCC(C)C2CCC3C4C(O)CC5CC(O)CCC5(C)C4CCC23C)nc2ccc(OC)cc12 (stereo not drawn) [Hybrid 5d] | – | – | – | 3.98 | 0.40 ± 0.05 | 1.59 ± 0.54 | – | in the same range as the commercial drug suramin | – | – | – | –
14 | C=CC1CN2CCC1CC2C(O)c1cc(CCC(C)C2CCC3C4CCC5CC(O)CCC5(C)C4CCC23C)nc2ccccc12 (stereo not drawn) [Hybrid 5e] | 3.96 ± 2.69 (≈ 6.34 µM) | – | – | – | – | – | > 30 | – | – | – | – | –
15 | C=CC1CN2CCC1CC2C(O)c1cc(CCC(C)C2CCC3C4C(O)CC5CC(O)CCC5(C)C4CCC23C)nc2ccccc12 (stereo not drawn) [Hybrid 5f] | 0.34 ± 0.03 (≈ 0.53 µM) | 0.65 ± 0.07 (≈ 1.01 µM) | 0.31 ± 0.1 (≈ 0.484 µM) | – | – | 4.02 ± 0.55 | – | in the same range as the commercial drug suramin | significantly lower than non-treated control | – | – | significant reduction in intracellular amastigotes
16 | C=CC1CN2CCC1CC2C(O)c1cc(CCC(C)C2CCC3C4CCC5CC(O)CCC5(C)C4CCC23C)nc2ccccc12 (stereo not drawn) [Hybrid 5g] | – | 3.25 ± 0.67 (≈ 5.2 µM) | 3.03 ± 0.24 (≈ 4.85 µM) | 10.58 | 2.56 ± 0.58 | 27.11 ± 4.54 | – | – | – | – | – | –
17 | C=CC1CN2CCC1CC2C(O)c1cc(CCC(C)C2CCC3C4C(O)CC5CC(O)CCC5(C)C4CCC23C)nc2ccccc12 (stereo not drawn) [Hybrid 5h] | – | – | – | 2.23 | 0.30 ± 0.00 | 0.67 ± 0.05 | – | in the same range as the commercial drug suramin | – | – | – | –
